Assay results: publication PMC12503906, “Novel Pyrazolo [1,5‐a]−1,3,5‐Triazine Derivatives as CDK7 Inhibitors: Synthesis and Biological Insights in Pancreatic Ductal Adenocarcinoma Models” (Chemmedchem, 2025)

Experiments:
Assay type in all cases: cell-based
PANC‐1 [1] = experiment: Cell cycle analysis (FACS, PI staining), PANC‐1; conditions: for percentage of cells in the G2‐M phase: untreated 18.1%; for percentage of cells in the G0‐G1 phase: untreated 40.7%; for percentage of cells in the S phase: untreated 41.3%
Method: (§1) Modulation of the cell cycle was analyzed via flow cytometry. Cells (5 × 10^5 cells mL^− ^1) were seeded in 6‐well plates and were incubated at 37 °C overnight. Cells were treated with the compounds 1b and 1g at two different concentrations (1 × IC50 and 4 × IC50, according to each cell line) and were again incubated for 24 and 72 h. After treatment, cells were harvested with trypsin and were collected in specific fluorescence‐activated cell sorting (FACS) tubes. Cells were then washed with PBS and centrifuged at 1500 rpm for 5 min, in order to form a pellet. These pellets were fixed in 1 mL of ice‐cold 70% ethanol, added drop by drop during vortex, and placed in the refrigerator at 4 °C. After overnight incubation, the cells were washed twice with PBS, centrifuged (5 min at 1500 rpm), resuspended in 50 µL of RNase (100 µg mL^− ^1), and incubated for 30 min at 37 °C. Finally, 200 µL of propidium iodide solution (PI, 50 µg mL^− ^1) was added, and the cell distribution in the various phases of the cell cycle was analyzed via BD LSRFortessa Cell Analyzer. Data analysis was carried out with FACSdiva software (Becton Dickinson), while cell cycle distribution was determined using FCS express software.

Bax/Bcl‐2 = Bax/Bcl‐2 ratio by RT‐PCR, SUIT 2.28 cells
Method: In order to understand modulation of downstream genes of CDK7, gene expression analysis by qPCR was performed in all cell lines. Cells (5 × 10^5/well) were seeded in 6‐well plates and treated with the compounds 1b and 1g at 1× and 4 × IC50 concentrations. Cell lysates were collected 24 h post‐treatment using 300 µL of TRIzol Reagent (Ambion, 15,596,018) per well. Total RNA was extracted by mixing 60 µL of chloroform to the samples, incubating for 3 min and centrifuging at 12,000 rcf for 15 min at 4 °C. The upper aqueous phase containing RNA was transferred to a new Eppendorf and mixed with 120 µL of cold isopropanol in order to allow the RNA to precipitate. Samples were incubated at RT for 10 min and were then centrifuged at 12,000 rcf for 10 min at 4 °C. The isopropanol was carefully removed, and the pellet was washed twice with 70% ETOH. Pellets were left to air dry and consequently resuspended in RNAse‐free water. Samples were left agitation on a thermomixer at 55 °C for 10 min at 600 rpm and were then quantified through NanoDrop technology (Thermo Scientific, NanoDrop One/One^c). RNA samples were stored at −80 °C.
In order to perform cDNA synthesis, the First Strand cDNA synthesis kit (Thermo Scientific, K1612) was used. The previously isolated RNA was mixed with 1 µL of oligo dT18 primer into a pcr tube. Nuclease free water was added to reach a final volume of 11 µL. Samples were centrifuged at 1200 rcf for 5 min and were then placed on a thermomixer at 65 °C for a few minutes. A master mix was prepared, including 4 µL of 5× reaction buffer, 1 µL of ribolock RNAse inhibitor, 2 µL of dntp mix (10 mM), and 2 µL of M‐mulv reverse transcriptase for each sample. In total 9 µL of master mix were added to each vial. Samples were centrifuged again and were finally synthesized, following a cycle of 60 min at 37 °C and 5 min at 70 °C. cDNA was now finally synthesized and could be stored at −20 °C. RT‐PCRs reactions were performed using SYBR Green (Bio‐Rad, 1,725,271) (5 µL per sample), primer mix (0.3 µM) (2 µL per sample), and cDNA (10 ng µL^− ^1) (3 µL per sample). […] RT‐PCR assays were carried out in a GeneAmp 5700 Sequence Detection System programmed to hold at 50 °C for 30 min, to hold at 95 °C for 10 min, and to complete 45 cycles of 95 °C for […] and 50 °C for 1 min. The genes that were investigated are shown in Table 5 , with their respective forward and reverse primer sequences.

SUIT 2.28 [2] = experiment: Annexin V apoptosis assay, SUIT 2.28; conditions: 1× and 4 × IC50
Method: (§2) In order to investigate the apoptotic properties of the compounds 1b and 1g, the Annexin V apoptosis assay was performed. Annexins are calcium‐dependent phospholipid binding proteins, which are able to bind to phosphatidylserine (PS). The externalization of PS residues on the outer membrane of apoptotic cells can be detected by Annexin V.
(§3) For this assay, cells were seeded in a 96‐well plate at a concentration of 13.5 × 10^3 and 4.5 × 10^3 /well respectively for the 24 and 72 h experiments. The next day cells were treated with compounds 1b and 1g at 1 × IC50 and 4 × IC50 concentrations. The apoptosis assay was performed 24 and 72 h post‐treatment following the BD Pharmingen FITC Annexin V Apoptosis Detection Kit I (BD Biosciences, 556,547). The supernatant was aspirated, and cells were washed with phosphate‐buffered saline (PBS). Cells were consequently treated with binding buffer BBA + Annexin V (1:100) and were incubated in the dark at RT for 10 min. The supernatant was removed, and the cells were washed with BBA (1:10). Cells were then incubated with BBA + PI (1:100) and were immediately read with the spectrophotometer at ex. 485/ em. 535. Two different programs were used to read the Annexin V and the PI absorbance. Lastly, 100 µL of PBS were added to each well before being fixed with TCA. This was followed by the SRB assay to standardize fluorescence data according to cell count. Data were exported into GraphPad Prism 10 for statistical analysis.

PANC‐1 [3] = experiment: Annexin V apoptosis assay, PANC‐1; conditions: 1 × IC50
Method: as §2, §3

SUIT 2.28 [4] = experiment: Cell cycle analysis (FACS, PI staining), SUIT 2.28; conditions: for percentage of cells in the G0‐G1 phase: untreated 24.6%; for percentage of cells in the G2‐M phase: untreated 32.7%; for percentage of cells in the S phase: untreated 42.7%
Method: as §1

Nc1ncnc2cc(-c3c[nH]c4ccc(Br)cc34)nn12 [Compound 1b, 7‐(5‐Bromo‐1H‐indol‐3‐yl)pyrazolo[1,5‐a][1,3,5]triazin‐4‐amine]
percentage of cells in the G2‐M phase (PANC‐1 [1]; PANC‐1, 1 × IC50, 24 h): 12.2% | percentage of cells in the G0‐G1 phase (PANC‐1 [1]; PANC‐1, 1 × IC50, 24 h): 55.0% | percentage of cells in the S phase (PANC‐1 [1]; PANC‐1, 1 × IC50, 24 h): 32.7% | percentage of cells in the G2‐M phase (PANC‐1 [1]; PANC‐1, 4 × IC50, 24 h): 10.0% | percentage of cells in the G0‐G1 phase (PANC‐1 [1]; PANC‐1, 4 × IC50, 24 h): 62.8% | percentage of cells in the S phase (PANC‐1 [1]; PANC‐1, 4 × IC50, 24 h): 28.3% | Bax/Bcl‐2 ratio SUIT 2.28 (Bax/Bcl‐2; 1 × IC50, 24 h after treatment): 1.07 | Bax/Bcl‐2 ratio SUIT 2.28 (Bax/Bcl‐2; 4 × IC50, 24 h after treatment): 1.45 | apoptotic index (SUIT 2.28 [2]; SUIT 2.28, 24 h): below 1.5 | apoptotic index (SUIT 2.28 [2]; SUIT 2.28, 72 h): higher apoptotic index | apoptotic index (PANC‐1 [3]; PANC‐1, 24 h): did not show any significant increase in apoptotic index | apoptotic index (PANC‐1 [3]; PANC‐1, 72 h): significant increase in apoptotic index | percentage of cells in the G0‐G1 phase (SUIT 2.28 [4]; SUIT 2.28, 1 × IC50, 24 h): 41.0% | percentage of cells in the G2‐M phase (SUIT 2.28 [4]; SUIT 2.28, 1 × IC50, 24 h): 18.7% | percentage of cells in the S phase (SUIT 2.28 [4]; SUIT 2.28, 1 × IC50, 24 h): 40.3% | percentage of cells in the G0‐G1 phase (SUIT 2.28 [4]; SUIT 2.28, 4 × IC50, 24 h): 41.6% | percentage of cells in the G2‐M phase (SUIT 2.28 [4]; SUIT 2.28, 4 × IC50, 24 h): 21.6% | percentage of cells in the S phase (SUIT 2.28 [4]; SUIT 2.28, 4 × IC50, 24 h): 34.9%

Cn1cc(-c2cc3ncnc(N)n3n2)c2cc(Br)ccc21 [Compound 1g, 7‐(5‐Bromo‐1‐methyl‐1H‐indol‐3‐yl)pyrazolo[1,5‐a][1,3,5]triazin‐4‐amine]
percentage of cells in the G2‐M phase (PANC‐1 [1]; PANC‐1, 1 × IC50, 24 h): 16.9% | percentage of cells in the G0‐G1 phase (PANC‐1 [1]; PANC‐1, 1 × IC50, 24 h): 55.2% | percentage of cells in the S phase (PANC‐1 [1]; PANC‐1, 1 × IC50, 24 h): 27.9% | percentage of cells in the G2‐M phase (PANC‐1 [1]; PANC‐1, 4 × IC50, 24 h): 14.1% | percentage of cells in the G0‐G1 phase (PANC‐1 [1]; PANC‐1, 4 × IC50, 24 h): 56.9% | percentage of cells in the S phase (PANC‐1 [1]; PANC‐1, 4 × IC50, 24 h): 29.0% | Bax/Bcl‐2 ratio SUIT 2.28 (Bax/Bcl‐2; 1 × IC50, 24 h after treatment): 1.21 | Bax/Bcl‐2 ratio SUIT 2.28 (Bax/Bcl‐2; 4 × IC50, 24 h after treatment): 2.06 | apoptotic index (SUIT 2.28 [2]; SUIT 2.28, 24 h): below 1.5 | apoptotic index (SUIT 2.28 [2]; SUIT 2.28, 72 h): higher apoptotic index | apoptotic index (PANC‐1 [3]; PANC‐1, 24 h): did not show any significant increase in apoptotic index | apoptotic index (PANC‐1 [3]; PANC‐1, 72 h): slight increase that was not statistically significant | percentage of cells in the G0‐G1 phase (SUIT 2.28 [4]; SUIT 2.28, 1 × IC50, 24 h): 36.2% | percentage of cells in the G2‐M phase (SUIT 2.28 [4]; SUIT 2.28, 1 × IC50, 24 h): 25.9% | percentage of cells in the S phase (SUIT 2.28 [4]; SUIT 2.28, 1 × IC50, 24 h): 37.8% | percentage of cells in the G0‐G1 phase (SUIT 2.28 [4]; SUIT 2.28, 4 × IC50, 24 h): 40.3% | percentage of cells in the G2‐M phase (SUIT 2.28 [4]; SUIT 2.28, 4 × IC50, 24 h): 25.4% | percentage of cells in the S phase (SUIT 2.28 [4]; SUIT 2.28, 4 × IC50, 24 h): 34.2%
